Biological target: T1, BACE2 (Rattus norvegicus, UniProt Q6IE75)
T1 construct: endogenous cellular BACE2 in the Ins1e rat cell line; endogenous in cells; host or cells: INS-TMEM27 (INS1e-derived rat beta-cell line with doxycycline-inducible full-length hTMEM27)
T1 sequence (Q6IE75 63-514): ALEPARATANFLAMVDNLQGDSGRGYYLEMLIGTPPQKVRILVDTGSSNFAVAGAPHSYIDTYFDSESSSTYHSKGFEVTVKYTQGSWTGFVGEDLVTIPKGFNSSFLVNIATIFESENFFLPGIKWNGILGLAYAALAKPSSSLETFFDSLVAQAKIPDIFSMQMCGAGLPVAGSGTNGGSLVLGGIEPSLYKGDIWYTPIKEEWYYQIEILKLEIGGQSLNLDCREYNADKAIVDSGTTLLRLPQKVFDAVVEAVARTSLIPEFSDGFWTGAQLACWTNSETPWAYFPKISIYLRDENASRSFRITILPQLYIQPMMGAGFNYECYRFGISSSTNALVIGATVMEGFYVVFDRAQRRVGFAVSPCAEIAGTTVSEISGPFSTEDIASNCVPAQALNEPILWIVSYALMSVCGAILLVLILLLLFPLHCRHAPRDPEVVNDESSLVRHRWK
Test: Assay for BACE inhibition by measuring cellular TMEM27 cleavage (INS-TMEM27 cells, ELISA of shed TMEM27)
Type: cell-based
Conditions: inhibition of human TMEM27 cleavage by endogenous cellular BACE2 in INS1e-derived INS-TMEM27 rat cell line; ELISA of shed TMEM27 in supernatant
Outline: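 Rat INS1e-derived cells with doxycycline-inducible full-length human TMEM27, cleaved by endogenous BACE2. After 2 days' culture, inhibitor added; 2 h later, doxycycline to 500 ng/ml final, then 46 h at 37 °C. Shed TMEM27 in medium quantified by sandwich ELISA; IC50 from curve fit.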

Structure (SMILES): CN(Cc1ccccn1)C(=O)c1cccc(C(=O)N[C@@H](Cc2ccccc2)[C@H](O)CNCc2cccc(C(F)(F)F)c2)c1 [Example 18, N-[(1S,2R)-1-Benzyl-2-hydroxy-3-(3-trifluoromethyl-benzylamino)-propyl]-N′-methyl-N′-pyridin-2-ylmethyl-isophthalamide]
- IC50: 47 nM

Structure (SMILES): CC1(C)[C@@H]2CC[C@@]1(C)CN(C(=O)c1cccc(C(=O)N[C@@H](Cc3ccccc3)[C@H](O)CNCc3cccc(OC(F)(F)F)c3)c1)C2 [Example 8, N-[(1S,2R)-1-Benzyl-2-hydroxy-3-(3-trifluoromethoxy-benzylamino)-propyl]-3-((1R,5S)-1,8,8-trimethyl-3-aza-bicyclo[3.2.1]octane-3-carbonyl)-benzamide]
- IC50: 822 nM

Structure (SMILES): Cc1cc(C(=O)N[C@@H](Cc2ccccc2)[C@H](O)CNCc2cccc(OC(F)(F)F)c2)cc(C(=O)N2CCCC2c2ccccc2)c1 (stereo partly drawn) [Example 43, N-[(1S,2R)-1-Benzyl-2-hydroxy-3-(3-trifluoromethoxy-benzylamino)-propyl]-3-methyl-5-(2-phenyl-pyrrolidine-1-carbonyl)-benzamide]
- IC50: 3 nM

Structure (SMILES): CCn1cc(CNC[C@@H](O)[C@H](Cc2ccccc2)NC(=O)c2cc(C)cc(C(=O)N(C)Cc3nc(C)cs3)c2)cn1 [Example 40, N-{(1S,2R)-1-Benzyl-3-[(1-ethyl-1H-pyrazol-4-ylmethyl)-amino]-2-hydroxy-propyl}-5,N′-dimethyl-N′-(4-methyl-thiazol-2-ylmethyl)-isophthalamide]
- IC50: 104 nM

Structure (SMILES): Cc1cc(C(=O)N[C@@H](Cc2ccccc2)[C@H](O)CNCc2cccc(C(F)(F)F)c2)cc(C(=O)N2CCCC2c2cccs2)c1 (stereo partly drawn) [Example 54, N-[(1S,2R)-1-Benzyl-2-hydroxy-3-(3-trifluoromethyl-benzylamino)-propyl]-3-methyl-5-(2-thiophen-2-yl-pyrrolidine-1-carbonyl)-benzamide]
- IC50: 1.9 nM

Structure (SMILES): O=C(N[C@@H](Cc1ccccc1)[C@H](O)CNCc1cccc(OC(F)(F)F)c1)c1cccc(C(=O)N2CCC(c3ccccn3)C2)c1 (stereo partly drawn) [Example 9, N-[(1S,2R)-1-Benzyl-2-hydroxy-3-(3-trifluoromethoxy-benzylamino)-propyl]-3-(3-pyridin-2-yl-pyrrolidine-1-carbonyl)-benzamide]
- IC50: 263 nM

Structure (SMILES): Cc1csc([C@H]2CCCN2C(=O)c2cccc(C(=O)N[C@@H](Cc3ccccc3)[C@H](O)CNCc3cccc(OC(F)(F)F)c3)c2)n1 [Example 21, N-[(1S,2R)-1-Benzyl-2-hydroxy-3-(3-trifluoromethoxy-benzylamino)-propyl]-3-[(R)-2-(4-methyl-thiazol-2-yl)-pyrrolidine-1-carbonyl]-benzamide]
- IC50: 37 nM

Structure (SMILES): Cc1cc(C2CCCN2C(=O)c2cccc(C(=O)N[C@@H](Cc3ccccc3)[C@H](O)CNCc3cccc(C(F)(F)F)c3)c2)ccc1Cl (stereo partly drawn) [Example 60, N-[(1S,2R)-1-Benzyl-2-hydroxy-3-(3-trifluoromethyl-benzylamino)-propyl]-3-[2-(4-chloro-3-methyl-phenyl)-pyrrolidine-1-carbonyl]-benzamide]
- IC50: 267 nM

Structure (SMILES): CC(C)CC1CCCN1C(=O)c1cccc(C(=O)N[C@@H](Cc2ccccc2)[C@H](O)CNCc2cccc(C(F)(F)F)c2)c1 (stereo partly drawn) [Example 70, N-[(1S,2R)-1-Benzyl-2-hydroxy-3-(3-trifluoromethyl-benzylamino)-propyl]-3-(2-isobutyl-pyrrolidine-1-carbonyl)-benzamide]
- IC50: 147 nM

Reference: patent US20120053200A1, “BACE 2 INHIBITORS” (priority 2010, published 2012)
